Reference: patent US20260306460A1, “COMPOSITION FOR REMOVING AND INHIBITING SENESCENT CELLS, AND USES THEREOF” (LIFECEUTIX CO., LTD., priority 2023, published 2026)

Experiments:
[1] = test system: obesity-induced aged C57BL6J mice; experiment: Anxiety, depression, lethargy (open field test) in obesity-aged mice, Example 23-4, Table 44; type: in vivo, mouse; settings: obesity-aged mice
Procedure: 15-week-old male C57BL6J mice (The Jackson Laboratory) were induced to obesity by a high-fat diet using the same method as in Example 9-1 WO2023-085787 A1. After acclimation to the experimental environment for one week, the mice were randomly assigned to experimental and control groups. […] LX-3002 was mixed in distilled water with 4% DMSO, 30% PEG300, and 5% Tween80 and administered orally at a concentration of 10 mg/kg daily for 21 days. LX-5701 was mixed in PBS and administered orally at a concentration of 360 mg/kg daily for 21 days. LX-6807 was mixed in saline and administered intraperitoneally at a concentration of 1 mg/kg daily for 21 days. The control group received only the solution in the same volume. After the end of drug administration, the methods described in each example below were performed.
It was determined that anxiety and depression caused by obesity are not causally related to increased body weight, but rather are caused by the accumulation of senescent cells. Accordingly, an activity assessment (open field test) was performed using the same method as in Example 7-7 of WO2023-085787 A1 to analyze lethargy caused by anxiety and depression caused by obesity in mice. The table below quantitatively represents activity, a criterion for assessing lethargy due to anxiety and depression, under conditions in which aging was induced by obesity and the test compound was not administered or was administered. The activity assessment after obesity-induced aging was calculated as 100% and compared with the activity assessment after test compound treatment.

[2] = test system: bleomycin-induced pulmonary fibrosis mice; experiment: Bleomycin-induced pulmonary fibrosis mice, Example 31, Table 56; type: in vivo, mouse; settings: untreated = 100%
How it was run: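 After treatment with test compound or vehicle alone, lungs of bleomycin-induced pulmonary fibrosis mice were harvested. Total RNA extracted and gene expression quantified by qRT-PCR.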

senescent cells = experiment: Viability of senescent cells (CellTiter-Glo), Example 17, Table 13; settings: for Survival (%): doxorubicin-induced senescent cells, 0 μM = 100
Procedure: Cells induced to undergo senescence by doxorubicin treatment were treated with test compound at designated concentrations and measured using the CellTiter-Glo Luminescent Cell Viability Assay (Promega).

[3] = test system: carbon tetrachloride-induced liver fibrosis mice; experiment: Carbon tetrachloride-induced liver fibrosis mice, Example 31, Table 57; type: in vivo, mouse; settings: CCl4-induced liver fibrosis mice, untreated = 100%
How it was run: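 Mice with induced hepatic fibrosis received either the test compound or, as controls, an equal volume of vehicle solution alone. Once dosing ended, liver tissue was harvested and total RNA was isolated. cDNA was synthesized from this RNA, and quantitative RT-PCR was run on it to measure hepatic mRNA levels of the fibrosis- and senescence-related genes.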

senescent A549 cells = experiment: Viability of senescent A549 cells (CellTiter-Glo), Example 18, Table 15; settings: for Survival (%): doxorubicin-induced senescent A549 cells, 0 μM = 100%
Procedure: Senescence-induced cancer cells treated with doxorubicin were treated with the test compound at designated concentrations, and cell viability was measured using the CellTiter-Glo Luminescent Cell Viability Assay (Promega).

naturally aged mice = experiment: Anti-aging evaluation in naturally aged mice, Example 31, Table 55; type: in vivo, mouse; settings: for Femur Ctsk mRNA / Kidney Agtr1a mRNA / Liver IL6 mRNA / Liver MMP3 mRNA / Liver p16 mRNA / Open Field Test Time in Center: untreated = 100%; for Heart Sur2a mRNA / Joint Col2a1 mRNA / Skin Col1a1 mRNA / Skin SDF1 mRNA: untreated = 1.0; for Muscle Mass: untreated 0.64 g; for Fat Mass: untreated 0.82 g; for Cataract incidence: untreated 83%;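 on all read-outs here: Vehicle-dosed control mice received solution alone at matching volume, values compare test-compound-treated aged mice against that control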
[4] = test system: naturally aged C57BL6J mice; experiment: Geriatric depression and anxiety in aged mice, Example 21-8; type: in vivo, mouse; settings: aged mice
Source text: The amount of senescent-associated secretory factor (SASP) in serum and tissues collected from mice of Examples 21-5 and 21-6 was reduced by treatment with LX-5701, LX-2101, or LX-2102. It was confirmed that removing senescent cells, which increase with aging in mice, and effectively reducing the amount of senescent-associated secretory factor (SASP) can improve symptoms of geriatric depression and anxiety.

[5] = test system: HMGN1 secreted from senescent cells; experiment: HMGN1 secretion (ELISA) from doxorubicin-induced senescent cells, Example 17; type: cell-based, human; settings: senescent untreated = 100%; 30 μM; 90 μM for LX-5211, 5433, 6530, 9105, 9118, 9321, 9602; 2.4 mM for LX-9336
[6] = test system: HMGN1 secreted from senescent A549 cells; experiment: HMGN1 secretion (ELISA) from senescent A549 cells, Example 18, Table 14; type: cell-based, human; settings: doxorubicin-senescent A549, without test compound (DMSO) = 100%; 30 μM (LX-5211, LX-5433, LX-6530, LX-6800, LX-9105, LX-9118, LX-9131, LX-9136, LX-9302, LX-9321, LX-9565, LX-9602 at 90 μM; LX-9336 at 2.4 mM)
Procedure: On the other hand, in cancer cells treated with doxorubicin, where senescence was induced, the amount of HMGN1 measured under conditions where cells were not treated with the test compound was calculated as 100%, and the amount of HMGN1 was measured under conditions where the senescent cancer cells were treated with the test compound.

[7] = Homo sapiens, read-out: Survival (%)
[8] = Homo sapiens, A549, read-out: Survival (%)

Row | Molecule | geriatric depression [1] | Lung p16 mRNA [2] | Col1a1 mRNA [2] | viability at 1.1 µM (senescent cells; [7]) [%] | viability at 10 µM (senescent cells; [7]) [%] | viability at 30 µM (senescent cells; [7]) [%] | Liver p16 mRNA [3] | Col1a1 mRNA [3] | viability at 1.1 µM (senescent A549 cells; [8]) [%] | viability at 10 µM (senescent A549 cells; [8]) [%] | HMGN1 [5] [%] | Survival (%) (senescent cells; 1.1 μM) | Survival (%) (senescent cells; 10 μM) | Survival (%) (senescent cells; 30 μM) | Survival (%) (senescent cells; […]) | HMGN1 [6] [%] | Survival (%) (senescent A549 cells; 1.1 μM) | Survival (%) (senescent A549 cells; 10 μM) | Survival (%) (senescent A549 cells; 30 μM) | Survival (%) (senescent A549 cells; […]) | other results
1 | Nc1ccc(O)c(C(=O)O)c1 [LX-9118, 5-aminosalicylic acid] | similarly improving geriatric depression | 76 (±4.6) % | 58 (±3.5) % | 102 | 94.1 | 62.8 | 69 (±2.4) % | 64 (±2.0) % | 105 | 81.7 | – | – | – | – | – | – | – | – | – | – | viability at 90 µM (senescent cells; [7]): 4.9%; viability at 30 µM (senescent A549 cells; [8]): 51.2%; viability at 90 µM (senescent A549 cells; [8]): 3.4%; Femur Ctsk mRNA (naturally aged mice): 75%; Heart Sur2a mRNA (naturally aged mice): 1.7 fold; Joint Col2a1 mRNA (naturally aged mice): 1.8 fold; Kidney Agtr1a mRNA (naturally aged mice): 71%; Liver IL6 mRNA (naturally aged mice): 62%; Liver MMP3 mRNA (naturally aged mice): 83%; Liver p16 mRNA (naturally aged mice): 74%; Open Field Test Time in Center (naturally aged mice): 199%; Skin Col1a1 mRNA (naturally aged mice): 1.9 Fold; Skin SDF1 mRNA (naturally aged mice): 1.8 fold; Muscle Mass (naturally aged mice): 0.73 g; Fat Mass (naturally aged mice): 0.88 g; Cataract incidence (naturally aged mice): 62%; amount of SASP, p16, SA-β-gal, lipofuscin [4]: reduced; symptoms of geriatric depression and anxiety [4]: improved
2 | CCCCCC/C=C\CCCCCCCCCC(=O)N[C@H]1[C@H](OC[C@H]2O[C@H](OP(=O)([O-])[O-])[C@H](NC(=O)CC(=O)CCCCCCCCCCC)[C@@H](OCCCCCCCCCC)[C@@H]2O)O[C@H](COC)[C@@H](OP(=O)([O-])[O-])[C@@H]1OCC[C@@H](CCCCCCC)OC.[Na+].[Na+].[Na+].[Na+] [LX-9136, Eritoran tetrasodium] | – | – | – | – | – | – | – | – | – | – | 263 | 84.6 | 71.1 | 23.1 | 76.9 | 296 | 91.1 | 70.9 | 44.8 | 83.4 | Survival (%) (senescent A549 cells; 90 μM): 6.7%
3 | CCCCCCCCCCCCCCCCCCCC(=O)N[C@H]1CC[C@@]2(C)[C@@H](C1)C[C@@H](O)[C@@H]1[C@@H]2C[C@H](O)[C@]2(C)[C@@H]([C@H](C)CCC(=O)O)CC[C@@H]12 [LX-9343, Icomidocholic acid] | – | – | – | – | – | – | – | – | – | – | 305 | 101.2 | 74.2 | 30.5 | 84.2 | 274 | 103.7 | 74.4 | 11.9 | 104.0 | –
4 | CCO[C@@H](Cc1ccc(OCCn2c(C)ccc2-c2ccc(SC)cc2)cc1)C(=O)[O-].CCO[C@@H](Cc1ccc(OCCn2c(C)ccc2-c2ccc(SC)cc2)cc1)C(=O)[O-].[Mg+2] [LX-9717, Saroglitazar Magnesium] | – | – | – | – | – | – | – | – | – | – | 226 | 101.2 | 73.5 | 21.5 | 92.7 | 231 | 94.6 | 75.4 | 10.4 | 87.6 | –
5 | CN(C)c1cccc(-c2c3c(=O)n(-c4ccccc4Cl)[nH]c3cc(=O)n2C)c1 [LX-9744, Setanaxib] | similarly improving geriatric depression | 73 (±3.1) % | 64 (±3.3) % | 101 | 69.8 | 22.3 | 71 (±3.1) % | 48 (±3.5) % | 91.8 | 73.5 | – | – | – | – | – | – | – | – | – | – | viability at 30 µM (senescent A549 cells; [8]): 25.8%; Femur Ctsk mRNA (naturally aged mice): 57%; Heart Sur2a mRNA (naturally aged mice): 2.3 fold; Joint Col2a1 mRNA (naturally aged mice): 2.4 fold; Kidney Agtr1a mRNA (naturally aged mice): 65%; Liver IL6 mRNA (naturally aged mice): 58%; Liver MMP3 mRNA (naturally aged mice): 49%; Liver p16 mRNA (naturally aged mice): 75%; Open Field Test Time in Center (naturally aged mice): 171%; Skin Col1a1 mRNA (naturally aged mice): 2.3 Fold; Skin SDF1 mRNA (naturally aged mice): 1.7 fold; Muscle Mass (naturally aged mice): 0.69 g; Fat Mass (naturally aged mice): 0.84 g; Cataract incidence (naturally aged mice): 78%; amount of SASP, p16, SA-β-gal, lipofuscin [4]: reduced; symptoms of geriatric depression and anxiety [4]: improved
6 | Mirvetuximab [LX-7622] | – | – | – | – | – | – | – | – | – | – | 293 | 99.1 | 75.7 | 17.7 | 94.1 | – | 88.6 | 71.1 | 4.3 | 81.0 | –
